The values that follow come from US20090298834A1, “4-(AMINOMETHYL)CYCLOHEXANAMINE DERIVATIVES AS CALCIUM CHANNEL BLOCKERS” (priority 2008, published 2009).

The structures appear in SMILES notation.

Assay [1] has as its system T-type over L-type channels. As to conditions: cited from earlier work.
For assay [2], the system named is spinal nerve ligation model of neuropathic pain. The settings on record: rats; Dogrul et al., Pain (2003); cited from earlier work.
The target of assay [3] is T1, human α1H T-type channels (Homo sapiens, UniProt O95180).
T1 construct: expressed in transfected cells; host or cells: HEK 293
The experiment in a line: T-type calcium channel block, whole cell patch clamp (α1H). It counts as cell-based. As to conditions: HEK cells stably expressing human α1H; mainly non-inactivated protocol; values above 10 μM represented as 10 μM. In short, it runs like this: (§1)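 Resting block was measured mainly with the non-inactivated protocol: holding potential −110 mV, 1 s step to −100 mV, then a 50 ms test pulse at −40 mV. Recordings used stably transfected human α1G or α1H HEK293 lines, with compounds perfused in external solution containing 0.1-0.01% DMSO. IC50 values (μM) above 10 μM are reported as 10 μM.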
In general terms: In patch-clamp work, channel activity is measured electrically.

Assay [4] deals with T2, human α1G T-type channels (Homo sapiens, UniProt O43497).
T2 construct: expressed in transfected cells; host or cells: HEK 293
The experiment in a line: T-type calcium channel block, whole cell patch clamp (α1G). The settings on record: HEK cells stably expressing human α1G; mainly non-inactivated protocol; values above 10 μM represented as 10 μM, values below 0.30 μM represented as 0.30 μM. The format is cell-based. The method, boiled down: as §1

T1 sequence (O95180 whole entry): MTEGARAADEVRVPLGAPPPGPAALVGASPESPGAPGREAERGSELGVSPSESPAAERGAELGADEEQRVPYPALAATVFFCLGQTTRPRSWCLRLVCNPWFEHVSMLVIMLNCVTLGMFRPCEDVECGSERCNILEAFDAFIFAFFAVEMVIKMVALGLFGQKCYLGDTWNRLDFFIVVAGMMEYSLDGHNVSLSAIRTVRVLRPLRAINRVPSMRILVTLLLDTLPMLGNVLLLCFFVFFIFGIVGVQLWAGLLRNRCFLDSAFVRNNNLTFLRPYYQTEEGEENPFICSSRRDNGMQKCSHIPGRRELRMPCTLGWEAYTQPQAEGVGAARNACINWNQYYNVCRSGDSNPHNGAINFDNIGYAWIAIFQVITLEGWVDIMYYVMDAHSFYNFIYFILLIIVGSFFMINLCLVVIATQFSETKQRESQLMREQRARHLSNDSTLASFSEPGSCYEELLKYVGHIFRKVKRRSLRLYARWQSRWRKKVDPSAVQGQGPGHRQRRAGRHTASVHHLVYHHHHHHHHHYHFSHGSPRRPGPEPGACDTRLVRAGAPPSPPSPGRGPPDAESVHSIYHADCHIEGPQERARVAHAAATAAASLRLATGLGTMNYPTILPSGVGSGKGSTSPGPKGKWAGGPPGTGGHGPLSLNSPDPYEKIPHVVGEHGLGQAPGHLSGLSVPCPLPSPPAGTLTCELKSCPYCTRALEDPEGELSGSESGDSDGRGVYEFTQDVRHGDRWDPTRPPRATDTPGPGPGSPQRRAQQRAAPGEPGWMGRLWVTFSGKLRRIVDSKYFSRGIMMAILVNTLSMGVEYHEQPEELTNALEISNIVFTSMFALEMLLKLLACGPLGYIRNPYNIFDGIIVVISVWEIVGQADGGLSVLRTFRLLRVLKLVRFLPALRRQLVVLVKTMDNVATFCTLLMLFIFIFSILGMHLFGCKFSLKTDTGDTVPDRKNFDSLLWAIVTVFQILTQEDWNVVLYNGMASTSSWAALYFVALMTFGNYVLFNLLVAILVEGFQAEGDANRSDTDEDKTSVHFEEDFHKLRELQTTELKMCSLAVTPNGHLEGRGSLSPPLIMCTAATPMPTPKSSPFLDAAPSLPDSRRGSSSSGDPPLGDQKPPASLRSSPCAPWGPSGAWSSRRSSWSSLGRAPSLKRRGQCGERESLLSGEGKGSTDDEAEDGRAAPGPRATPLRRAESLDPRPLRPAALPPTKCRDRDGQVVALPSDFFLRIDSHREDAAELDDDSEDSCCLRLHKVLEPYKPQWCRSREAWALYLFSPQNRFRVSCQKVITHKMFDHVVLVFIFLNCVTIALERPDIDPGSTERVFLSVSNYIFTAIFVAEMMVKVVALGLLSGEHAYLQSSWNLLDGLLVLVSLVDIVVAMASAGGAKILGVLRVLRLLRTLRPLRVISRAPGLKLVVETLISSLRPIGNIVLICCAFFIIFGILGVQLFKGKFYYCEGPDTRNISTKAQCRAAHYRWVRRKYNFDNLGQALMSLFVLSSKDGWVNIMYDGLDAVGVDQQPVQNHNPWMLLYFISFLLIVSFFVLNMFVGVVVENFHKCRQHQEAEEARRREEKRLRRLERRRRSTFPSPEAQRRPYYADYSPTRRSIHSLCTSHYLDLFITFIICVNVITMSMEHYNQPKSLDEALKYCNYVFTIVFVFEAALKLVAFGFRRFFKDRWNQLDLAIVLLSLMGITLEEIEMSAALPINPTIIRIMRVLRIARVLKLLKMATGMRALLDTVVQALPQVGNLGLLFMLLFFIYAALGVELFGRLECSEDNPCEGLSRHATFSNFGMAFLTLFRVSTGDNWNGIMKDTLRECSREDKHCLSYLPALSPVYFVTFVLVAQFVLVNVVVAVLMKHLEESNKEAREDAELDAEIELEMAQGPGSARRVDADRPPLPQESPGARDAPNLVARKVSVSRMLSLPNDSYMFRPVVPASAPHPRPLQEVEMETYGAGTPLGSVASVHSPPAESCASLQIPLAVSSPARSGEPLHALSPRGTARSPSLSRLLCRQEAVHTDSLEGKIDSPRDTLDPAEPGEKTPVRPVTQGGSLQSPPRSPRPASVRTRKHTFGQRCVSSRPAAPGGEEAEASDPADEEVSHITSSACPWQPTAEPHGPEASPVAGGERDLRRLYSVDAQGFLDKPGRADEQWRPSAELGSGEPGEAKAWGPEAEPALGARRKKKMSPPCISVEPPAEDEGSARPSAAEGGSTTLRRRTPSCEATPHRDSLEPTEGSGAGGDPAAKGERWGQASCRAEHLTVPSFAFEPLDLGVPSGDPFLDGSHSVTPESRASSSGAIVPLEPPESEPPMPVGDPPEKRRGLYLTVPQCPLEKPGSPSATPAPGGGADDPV
T2 sequence (O43497 whole entry): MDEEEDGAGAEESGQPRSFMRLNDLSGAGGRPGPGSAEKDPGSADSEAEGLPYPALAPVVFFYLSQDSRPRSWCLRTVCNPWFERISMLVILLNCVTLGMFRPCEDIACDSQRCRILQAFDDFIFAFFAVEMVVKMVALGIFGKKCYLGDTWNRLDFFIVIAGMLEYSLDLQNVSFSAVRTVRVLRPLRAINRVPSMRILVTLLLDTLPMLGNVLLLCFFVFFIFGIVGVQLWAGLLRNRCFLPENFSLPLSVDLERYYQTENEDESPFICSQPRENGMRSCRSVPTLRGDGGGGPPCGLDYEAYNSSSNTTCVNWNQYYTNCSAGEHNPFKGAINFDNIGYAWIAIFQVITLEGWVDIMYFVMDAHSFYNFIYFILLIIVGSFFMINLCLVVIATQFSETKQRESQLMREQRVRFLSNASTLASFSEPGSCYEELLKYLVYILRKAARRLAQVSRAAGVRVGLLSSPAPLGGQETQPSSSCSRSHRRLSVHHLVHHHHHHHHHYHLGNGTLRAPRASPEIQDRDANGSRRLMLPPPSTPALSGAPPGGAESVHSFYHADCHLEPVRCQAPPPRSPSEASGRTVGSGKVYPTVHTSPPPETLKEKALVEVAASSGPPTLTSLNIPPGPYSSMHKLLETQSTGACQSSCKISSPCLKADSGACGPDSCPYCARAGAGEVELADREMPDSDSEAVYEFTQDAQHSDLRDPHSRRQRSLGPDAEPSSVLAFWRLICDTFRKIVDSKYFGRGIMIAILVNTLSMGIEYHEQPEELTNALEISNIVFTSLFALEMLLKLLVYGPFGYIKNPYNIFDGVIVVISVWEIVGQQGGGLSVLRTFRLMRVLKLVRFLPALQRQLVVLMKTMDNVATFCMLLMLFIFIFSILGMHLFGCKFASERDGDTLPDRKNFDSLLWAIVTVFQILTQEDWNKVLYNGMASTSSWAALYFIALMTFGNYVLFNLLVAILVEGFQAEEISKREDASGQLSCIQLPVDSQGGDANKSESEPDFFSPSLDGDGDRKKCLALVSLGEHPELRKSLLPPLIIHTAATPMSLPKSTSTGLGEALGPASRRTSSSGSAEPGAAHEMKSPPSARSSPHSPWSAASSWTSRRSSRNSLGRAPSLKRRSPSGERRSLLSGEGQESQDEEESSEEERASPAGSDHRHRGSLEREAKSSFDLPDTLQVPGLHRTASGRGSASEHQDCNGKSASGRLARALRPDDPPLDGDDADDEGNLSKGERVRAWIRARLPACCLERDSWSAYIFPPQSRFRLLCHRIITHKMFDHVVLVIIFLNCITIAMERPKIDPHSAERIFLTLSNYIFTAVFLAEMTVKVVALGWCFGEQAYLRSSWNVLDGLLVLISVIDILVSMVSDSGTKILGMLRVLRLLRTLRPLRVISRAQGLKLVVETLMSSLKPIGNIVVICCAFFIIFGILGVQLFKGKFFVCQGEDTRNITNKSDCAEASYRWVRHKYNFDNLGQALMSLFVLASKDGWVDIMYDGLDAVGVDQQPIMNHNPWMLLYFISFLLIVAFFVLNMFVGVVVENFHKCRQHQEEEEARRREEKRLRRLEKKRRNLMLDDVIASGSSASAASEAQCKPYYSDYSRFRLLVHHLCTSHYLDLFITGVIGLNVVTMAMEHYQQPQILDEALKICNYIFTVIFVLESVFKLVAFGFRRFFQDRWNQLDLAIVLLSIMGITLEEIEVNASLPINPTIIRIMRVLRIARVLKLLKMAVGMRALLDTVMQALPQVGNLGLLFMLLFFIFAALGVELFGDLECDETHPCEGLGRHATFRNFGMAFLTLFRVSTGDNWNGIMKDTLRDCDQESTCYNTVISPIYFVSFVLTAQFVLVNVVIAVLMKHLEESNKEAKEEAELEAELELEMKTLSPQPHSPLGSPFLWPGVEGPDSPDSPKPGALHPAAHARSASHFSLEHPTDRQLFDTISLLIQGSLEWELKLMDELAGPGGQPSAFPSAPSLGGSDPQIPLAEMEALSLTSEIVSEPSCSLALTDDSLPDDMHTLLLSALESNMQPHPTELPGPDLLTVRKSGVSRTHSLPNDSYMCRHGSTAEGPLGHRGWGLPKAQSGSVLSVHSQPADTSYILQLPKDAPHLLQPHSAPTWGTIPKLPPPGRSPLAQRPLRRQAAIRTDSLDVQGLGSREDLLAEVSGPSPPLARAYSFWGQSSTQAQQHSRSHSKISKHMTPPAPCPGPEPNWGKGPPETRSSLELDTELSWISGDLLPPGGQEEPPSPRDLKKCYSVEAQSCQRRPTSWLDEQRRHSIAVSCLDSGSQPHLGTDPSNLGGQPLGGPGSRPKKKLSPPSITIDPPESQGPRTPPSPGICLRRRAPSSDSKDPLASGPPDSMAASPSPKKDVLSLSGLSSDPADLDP

Take `COCC(=O)O[C@]1(CCN(C)CCCc2nc3ccccc3[nH]2)CCc2cc(F)ccc2[C@@H]1C(C)C` [Mibefradil]: in assay [1], the “fold selective for T-type over L-type channels” value was 10-30 fold. Besides, the “anti-hyperalgesic activity in the spinal nerve ligation model” value in assay [2] is “anti-hyperalgesic activity”.

Take `CCC1(C)CC(=O)NC1=O` (centres unmarked) [ethosuximide]: in assay [2], the “anti-hyperalgesic activity in the spinal nerve ligation model” value is reported as “anti-hyperalgesic activity”.

One may read the IC50 as the concentration at which inhibition is half-maximal. Regarding `CC1(NC(=O)CN[C@H]2CC[C@H](CNC(=O)c3cc(Cl)cc(Cl)c3)CC2)CCC1` [Compound 192, 3,5-dichloro-N-(((1r,4r)-4-(2-(1-methylcyclobutylamino)-2-oxoethylamino)cyclohexyl)methyl)benzamide], the IC50 is 120 nM in assay [3] and 340 nM in assay [4].

As to `C#CC(CC)(CC)NC(=O)CN[C@H]1CC[C@H](CNC(=O)c2cc(C(F)(F)F)cc(C(F)(F)F)c2)CC1` [Compound 62, N-((trans-4-(2-(3-ethylpent-1-yn-3-ylamino)-2-oxoethylamino)cyclohexyl)methyl)-3,5-bis(trifluoromethyl)benzamide], the IC50 in assay [3] was 310 nM; in assay [4], no more than 300 nM.

Take `COCC(C)(C)N(C)C(=O)CN[C@H]1CC[C@@H](CNC(=O)c2cc(F)cc(OC)c2)CC1` [Compound 214, 3-fluoro-5-methoxy-N-(((1s,4s)-4-(2-((1-methoxy-2-methylpropan-2-yl)(methyl)amino)-2-oxoethylamino)cyclohexyl)methyl)benzamide]: the IC50 in assay [3] was 710 nM; in assay [4], 5820 nM.

For the molecule `O=C(C[C@H]1CC[C@@H](NC(=O)[C@@H]2C[C@@H](c3ccccc3)CN2)CC1)NCc1cccc(OC(F)(F)F)c1` [Compound 116, (2S,4S)-N-(cis-4-(2-oxo-2-(3-(trifluoromethoxy)benzylamino)ethyl)cyclohexyl)-4-phenylpyrrolidine-2-carboxamide], the IC50 is no less than 10000 nM in assay [3] and 2890 nM in assay [4].

Take `COc1cc(F)cc(C(=O)NC[C@H]2CC[C@H](NCC(=O)N3CCOCC3(C)C)CC2)c1` [Compound 208, N-(((1r,4r)-4-(2-(3,3-dimethylmorpholino)-2-oxoethylamino)cyclohexyl)methyl)-3-fluoro-5-methoxybenzamide]: the results for the IC50 in assay [3] and in assay [4] were 4330 nM and no less than 10000 nM, respectively.

As to `Cc1cc(CN[C@H]2CC[C@@H](CNC(=O)c3cc(C(F)(F)F)cc(C(F)(F)F)c3)CC2)no1` [Compound 52, N-((cis-4-((5-methylisoxazol-3-yl)methylamino)cyclohexyl)methyl)-3,5-bis(trifluoromethyl)benzamide], the IC50 came to 1330 nM in assay [3] and 1240 nM in assay [4].

In the case of `CC(C)(C)NC(=O)CN[C@H]1CC[C@H](CNC(=O)c2cc(Cl)cc(Cl)c2)CC1` [Compound 191, N-(((1r,4r)-4-(2-(tert-butylamino)-2-oxoethylamino)cyclohexyl)methyl)-3,5-dichlorobenzamide], the values for the IC50 in assay [3] and in assay [4] were 180 nM and 530 nM, respectively.

Turning to `O=C(NC[C@H]1CC[C@H](NCc2ccccc2O)CC1)c1cc(C(F)(F)F)cc(C(F)(F)F)c1` [Compound 25, N-((trans-4-(2-hydroxybenzylamino)cyclohexyl)methyl)-3,5-bis(trifluoromethyl)benzamide], the IC50 in assay [3] is 2450 nM; in assay [4], no more than 300 nM.

As to `Cc1ccc(NC(=O)CN[C@H]2CC[C@H](CNC(=O)c3cc(C(F)(F)F)cc(C(F)(F)F)c3)CC2)nc1` [Compound 77, N-((trans-4-(2-(5-methylpyridin-2-ylamino)-2-oxoethylamino)cyclohexyl)methyl)-3,5-bis(trifluoromethyl)benzamide], the results for the IC50 in assay [3] and in assay [4] were 1140 nM and 730 nM, respectively.

Turning to `CC(C)NC(=O)CN[C@H]1CC[C@H](CNC(=O)c2cc(C(F)(F)F)cc(C(F)(F)F)c2)CC1` [Compound 74, N-((trans-4-(2-(isopropylamino)-2-oxoethylamino)cyclohexyl)methyl)-3,5-bis(trifluoromethyl)benzamide], the figures for the IC50 in assay [3] and in assay [4] were 650 nM and 2350 nM, respectively.

`O=C(NC[C@H]1CC[C@@H](NCc2cccnc2F)CC1)c1cc(F)cc(C(F)(F)F)c1` [Compound 17, 3-fluoro-N-((cis-4-((2-fluoropyridin-3-yl)methylamino)cyclohexyl)methyl)-5-(trifluoromethyl)benzamide]: the IC50 worked out at 4940 nM in assay [3] and 7730 nM in assay [4].

As to `CC(C)(C)C1CN([C@H]2CC[C@H](CNC(=O)c3cc(C(F)(F)F)cc(C(F)(F)F)c3)CC2)C(=O)O1` (stereo partly drawn) [Compound 153, N-((trans-4-(5-tert-butyl-2-oxooxazolidin-3-yl)cyclohexyl)methyl)-3,5-bis(trifluoromethyl)benzamide], the IC50 in assay [3] was determined as 4010 nM; in assay [4], 1180 nM.

Consider `O=C(NC[C@H]1CC[C@H](NCc2cccnc2F)CC1)c1cc(C(F)(F)F)cc(C(F)(F)F)c1` [Compound 27, N-((trans-4-((2-fluoropyridin-3-yl)methylamino)cyclohexyl)methyl)-3,5-bis(trifluoromethyl)benzamide], for which the half-maximal inhibitory concentration (IC50) in assay [3] was found to be 9760 nM; in assay [4] it was 1970 nM.
